According to US9840501B2, “Morpholin-pyridine derivatives” (Hoffmann-La Roche Inc., priority 2014, dated 2017):

Tests used:
rat TAAR1 = rat TAAR1 (Rattus norvegicus (Rat), UniProt Q923Y9); assay: Radioligand binding assay on rat TAAR1; details: rat TAAR1, membranes of stably transfected HEK-293 cells; second value of the pair; read-out: Ki (μM) mouse/rat: rat
Procedure, shortened: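 Membranes from HEK293 cells stably expressing rat TAAR1, in 20 mM HEPES-NaOH pH 7.4; displacement of 3[H]-(S)-4-[(ethyl-phenyl-amino)-methyl]-4,5-dihydro-oxazol-2-ylamine, nonspecific binding with 10 μM unlabeled ligand. Compounds 10 pM to 10 μM in duplicate, 1 h at 4 °C, filtration and scintillation counting.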

mouse TAAR1 = mouse TAAR1 (Mus musculus (Mouse), UniProt Q923Y8); assay: Radioligand binding assay on mouse TAAR1; details: mouse TAAR1, membranes of stably transfected HEK-293 cells; first value of the pair; read-out: Ki (μM) mouse/rat: mouse
Sequence of mouse TAAR1 (Q923Y8 whole entry): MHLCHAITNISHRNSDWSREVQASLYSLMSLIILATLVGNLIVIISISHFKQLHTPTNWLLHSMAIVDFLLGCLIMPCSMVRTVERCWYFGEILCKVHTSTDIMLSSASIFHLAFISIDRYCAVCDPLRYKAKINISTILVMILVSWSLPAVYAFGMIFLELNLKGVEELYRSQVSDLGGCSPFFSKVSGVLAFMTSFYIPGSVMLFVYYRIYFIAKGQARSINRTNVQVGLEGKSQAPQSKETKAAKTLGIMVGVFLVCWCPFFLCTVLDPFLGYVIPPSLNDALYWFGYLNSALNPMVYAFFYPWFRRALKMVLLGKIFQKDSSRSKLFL
Procedure, shortened: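 Membranes from HEK293 cells stably expressing mouse TAAR1, in 20 mM HEPES-NaOH pH 7.4 with 0.1 mM EDTA, incubated 1 h at 4 °C with ^3[H]-(S)-4-[(ethyl-phenyl-amino)-methyl]-4,5-dihydro-oxazol-2-ylamine and compounds (10 pM to 10 μM, duplicates). Nonspecific binding with 10 μM unlabeled ligand; bound radioactivity counted after filtration.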

Sequence of rat TAAR1 (Q923Y9 whole entry): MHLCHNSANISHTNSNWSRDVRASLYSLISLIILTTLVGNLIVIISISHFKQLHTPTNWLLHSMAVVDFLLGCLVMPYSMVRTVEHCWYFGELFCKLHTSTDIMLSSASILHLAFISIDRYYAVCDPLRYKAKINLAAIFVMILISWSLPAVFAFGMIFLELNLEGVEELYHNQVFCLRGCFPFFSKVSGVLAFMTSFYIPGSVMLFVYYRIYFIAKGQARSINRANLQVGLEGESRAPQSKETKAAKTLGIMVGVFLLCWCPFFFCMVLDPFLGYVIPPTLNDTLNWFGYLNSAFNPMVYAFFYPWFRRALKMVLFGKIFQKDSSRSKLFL

O=C(Nc1ccc([C@H]2CNCCO2)nc1)c1ccc(Cl)cc1 [Example 51, 4-Chloro-N-[6-[(2R)-morpholin-2-yl]-3-pyridyl]benzamide] showed a Ki (rat TAAR1) of 0.212 µM and a Ki (mouse TAAR1) of 0.0039 µM.

CC(C)Cc1cc(C(=O)Nc2ccc([C@H]3CNCCO3)nc2)[nH]n1 [Example 94, 3-Isobutyl-N-[6-[(2R)-morpholin-2-yl]-3-pyridyl]-1H-pyrazole-5-carboxamide] was tested, and the Ki (rat TAAR1) was 0.107 µM and the Ki (mouse TAAR1) was 0.0216 µM.

CC(C)c1n[nH]c(C(=O)Nc2ccc([C@@H]3CNCCO3)nc2)c1Cl [Example 120, 4-Chloro-3-isopropyl-N-[6-[(2S)-morpholin-2-yl]-3-pyridyl]-1H-pyrazole-5-carboxamide] showed a Ki (rat TAAR1) of 0.0203 µM and a Ki (mouse TAAR1) of 0.0311 µM.

Fc1ccc(Nc2ccc(C3CNCCO3)nc2)cc1 (racemic) [Example 5, (RS)—N-(4-Fluorophenyl)-6-morpholin-2-yl-pyridin-3-amine] was tested, and the Ki (rat TAAR1) was 0.372 µM and the Ki (mouse TAAR1) was 0.0065 µM.

CC(C)c1cc(C(=O)Nc2ccc([C@@H]3CNCCO3)nc2)[nH]n1 [Example 38, 3-Isopropyl-N-[6-[(2S)-morpholin-2-yl]-3-pyridyl]-1H-pyrazole-5-carboxamide] gave a Ki (rat TAAR1) of 0.0727 µM and a Ki (mouse TAAR1) of 0.0263 µM.

CCc1ncc(C(=O)Nc2ccc([C@@H]3CNCCO3)nc2)cn1 [Example 37, 2-Ethyl-N-[6-[(2S)-morpholin-2-yl]-3-pyridyl]pyrimidine-5-carboxamide] was tested, and the Ki (rat TAAR1) was 1.47 µM and the Ki (mouse TAAR1) was 0.139 µM.
